The results in this text go back to ChEMBL document CHEMBL2412971, “Selective orexin receptor antagonists” (Bioorg Med Chem Lett, 2013).

For assay [1], the target named is T1, Orexin/Hypocretin receptor type 1 (Homo sapiens, UniProt O43613).
T1 sequence (O43613 whole entry): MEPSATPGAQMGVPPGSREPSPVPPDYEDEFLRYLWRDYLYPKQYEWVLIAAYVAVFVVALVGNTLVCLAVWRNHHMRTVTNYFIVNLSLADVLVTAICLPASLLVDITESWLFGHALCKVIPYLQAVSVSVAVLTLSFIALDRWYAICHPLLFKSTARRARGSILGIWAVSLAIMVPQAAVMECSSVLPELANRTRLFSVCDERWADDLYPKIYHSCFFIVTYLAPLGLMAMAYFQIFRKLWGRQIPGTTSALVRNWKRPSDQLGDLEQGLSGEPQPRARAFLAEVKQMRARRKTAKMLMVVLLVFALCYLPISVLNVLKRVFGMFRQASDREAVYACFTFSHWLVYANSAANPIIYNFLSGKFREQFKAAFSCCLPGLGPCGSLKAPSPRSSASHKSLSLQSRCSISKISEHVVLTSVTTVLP
As to the kind of experiment: (§1) Binding affinity to orexin receptor 1 (unknown origin).

Assay [2] deals with T2, Orexin/Hypocretin receptor type 1 (Homo sapiens) (UniProt O43613).
T2 sequence (whole entry): T1 sequence (O43613 whole entry)
The assay is described as §1.

The target in assay [3] is T3, Orexin receptor type 2 (Homo sapiens) (UniProt O43614).
T3 sequence (whole entry): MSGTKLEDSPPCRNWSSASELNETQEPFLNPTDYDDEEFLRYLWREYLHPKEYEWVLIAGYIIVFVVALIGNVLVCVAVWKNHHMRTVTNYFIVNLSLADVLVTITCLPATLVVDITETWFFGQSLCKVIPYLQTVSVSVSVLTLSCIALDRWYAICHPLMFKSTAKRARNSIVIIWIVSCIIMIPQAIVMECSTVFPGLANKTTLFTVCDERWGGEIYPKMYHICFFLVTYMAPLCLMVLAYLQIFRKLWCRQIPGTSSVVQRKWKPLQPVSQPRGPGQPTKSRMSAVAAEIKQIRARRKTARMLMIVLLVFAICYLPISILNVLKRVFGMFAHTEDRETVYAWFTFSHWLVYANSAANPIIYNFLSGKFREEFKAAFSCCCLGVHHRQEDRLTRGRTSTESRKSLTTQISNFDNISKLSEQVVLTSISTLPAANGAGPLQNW
Nature of the assay: (§2) Binding affinity to orexin receptor 2 (unknown origin).

Assay [4] concerns the target T4, Orexin receptor type 2 (Homo sapiens, UniProt O43614).
T4 sequence (O43614 whole entry): T3 sequence (whole entry)
As to the kind of experiment: Antagonist activity at human orexin receptor 2 expressed in CHO cells assessed as inhibition of orexin-A-induced calcium flux by FLIPR assay. The assay is classed as functional, cell-based.

Assay [5] has as its target T1, Orexin/Hypocretin receptor type 1. As to the kind of experiment: Antagonist activity at human orexin receptor 1 expressed in CHO cells assessed as inhibition of orexin-A-induced calcium flux by FLIPR assay. The assay is classed as functional, cell-based. In general terms: A change in cytosolic calcium serves as a functional read-out for many receptors and channels.

In assay [6] the target is 5-hydroxytryptamine receptor 2B (Homo sapiens, UniProt P41595). As to the kind of experiment: Binding affinity to 5HT2B receptor (unknown origin).
Sequence of 5-hydroxytryptamine receptor 2B (P41595 whole entry): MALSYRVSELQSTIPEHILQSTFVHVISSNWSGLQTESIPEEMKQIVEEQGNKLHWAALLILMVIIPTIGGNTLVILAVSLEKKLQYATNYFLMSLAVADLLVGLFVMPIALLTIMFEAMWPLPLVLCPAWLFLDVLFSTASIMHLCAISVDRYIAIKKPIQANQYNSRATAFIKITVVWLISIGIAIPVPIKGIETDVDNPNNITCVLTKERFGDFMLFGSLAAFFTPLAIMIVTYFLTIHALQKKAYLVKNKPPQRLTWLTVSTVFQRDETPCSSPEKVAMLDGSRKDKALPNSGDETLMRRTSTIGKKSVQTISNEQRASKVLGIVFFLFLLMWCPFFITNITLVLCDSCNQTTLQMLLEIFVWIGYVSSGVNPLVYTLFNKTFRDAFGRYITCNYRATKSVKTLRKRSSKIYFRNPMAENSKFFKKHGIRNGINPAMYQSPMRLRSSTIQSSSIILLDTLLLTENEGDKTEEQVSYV
A further assay addresses D(1A) dopamine receptor (Homo sapiens, UniProt P21728). As to the kind of experiment: Binding affinity to dopamine D1 receptor (unknown origin).
Assay [7] has as its target T4, Orexin receptor type 2. Described as §2.
For assay [8], the target named is Kappa-type opioid receptor (Homo sapiens, UniProt P41145). Nature of the assay: Binding affinity to kappa opioid receptor (unknown origin).
Sequence of Kappa-type opioid receptor (P41145 whole entry): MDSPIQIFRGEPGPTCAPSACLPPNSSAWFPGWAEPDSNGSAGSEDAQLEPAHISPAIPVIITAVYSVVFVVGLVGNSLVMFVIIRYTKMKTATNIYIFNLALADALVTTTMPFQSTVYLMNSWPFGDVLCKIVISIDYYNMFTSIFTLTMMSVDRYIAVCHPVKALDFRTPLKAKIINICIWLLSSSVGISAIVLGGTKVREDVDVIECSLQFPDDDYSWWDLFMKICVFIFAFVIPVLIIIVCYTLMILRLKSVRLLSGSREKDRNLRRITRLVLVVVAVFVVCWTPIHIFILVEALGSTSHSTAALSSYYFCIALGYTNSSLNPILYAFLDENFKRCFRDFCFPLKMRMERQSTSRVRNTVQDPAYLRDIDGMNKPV
For assay [9], the target named is T5, 5-hydroxytryptamine receptor 2C (Homo sapiens, UniProt P28335).
T5 sequence (P28335 whole entry): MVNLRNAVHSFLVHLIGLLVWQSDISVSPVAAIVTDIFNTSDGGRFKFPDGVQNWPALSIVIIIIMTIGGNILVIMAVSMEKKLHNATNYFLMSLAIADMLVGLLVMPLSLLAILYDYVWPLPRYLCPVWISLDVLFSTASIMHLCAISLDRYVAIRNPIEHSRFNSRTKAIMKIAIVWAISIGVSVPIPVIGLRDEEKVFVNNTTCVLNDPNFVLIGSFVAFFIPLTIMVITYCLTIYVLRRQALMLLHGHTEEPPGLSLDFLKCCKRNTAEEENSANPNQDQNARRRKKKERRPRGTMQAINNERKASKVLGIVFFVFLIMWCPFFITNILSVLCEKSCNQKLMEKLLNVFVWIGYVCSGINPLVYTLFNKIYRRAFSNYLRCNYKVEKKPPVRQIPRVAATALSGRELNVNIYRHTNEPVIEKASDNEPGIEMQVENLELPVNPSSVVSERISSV
As to the kind of experiment: Binding affinity to 5HT2C receptor (unknown origin).

A further assay deals with Adenosine receptor A2a (Homo sapiens, UniProt P29274). As to the kind of experiment: Binding affinity to adenosine A2A receptor (unknown origin).
Sequence of Adenosine receptor A2a (P29274 whole entry): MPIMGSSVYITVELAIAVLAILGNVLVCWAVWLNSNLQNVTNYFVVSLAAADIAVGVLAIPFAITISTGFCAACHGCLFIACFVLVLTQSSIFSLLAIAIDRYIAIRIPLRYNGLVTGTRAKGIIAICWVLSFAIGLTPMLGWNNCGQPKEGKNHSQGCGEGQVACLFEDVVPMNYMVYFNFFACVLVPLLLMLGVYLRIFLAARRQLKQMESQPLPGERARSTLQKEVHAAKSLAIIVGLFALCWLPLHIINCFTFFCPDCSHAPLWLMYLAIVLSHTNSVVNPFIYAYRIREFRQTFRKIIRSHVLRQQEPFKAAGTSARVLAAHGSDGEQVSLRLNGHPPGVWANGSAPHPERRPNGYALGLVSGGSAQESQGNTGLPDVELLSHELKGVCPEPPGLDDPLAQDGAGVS

By Ki is commonly meant a measure of affinity in units of concentration, obtained from inhibition or displacement. Broadly, the IC50 is the midpoint of a concentration-inhibition curve. A word on the Kd: it is the free concentration of one partner at which half of the binding sites on the other are occupied at equilibrium, for simple one-to-one binding. Lower therefore signals higher affinity.

Sequence of D(1A) dopamine receptor (P21728 whole entry): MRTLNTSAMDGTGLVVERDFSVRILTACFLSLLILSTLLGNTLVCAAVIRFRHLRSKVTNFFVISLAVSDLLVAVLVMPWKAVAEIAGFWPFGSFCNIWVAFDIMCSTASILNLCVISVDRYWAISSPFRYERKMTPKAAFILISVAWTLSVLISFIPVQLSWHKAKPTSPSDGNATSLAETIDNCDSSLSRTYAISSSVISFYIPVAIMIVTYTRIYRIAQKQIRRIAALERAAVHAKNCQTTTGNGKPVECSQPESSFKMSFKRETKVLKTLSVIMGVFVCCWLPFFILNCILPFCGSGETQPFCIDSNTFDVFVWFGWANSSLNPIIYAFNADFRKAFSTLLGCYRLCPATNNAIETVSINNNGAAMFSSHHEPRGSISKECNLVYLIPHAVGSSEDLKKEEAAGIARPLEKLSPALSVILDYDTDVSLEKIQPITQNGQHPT

With `Cc1nc(C(=O)N2CCCC[C@H]2CNC(=O)c2cccc3occc23)c(-c2ccc(F)cc2)s1` [SB-649868], the affinity in [1] corresponds to a Ki of 0.3 nM.
For the molecule `Cc1nc(C(=O)N2CC3(CC3)C[C@H]2CNc2ccc(Cl)cn2)c(-c2ccccc2)s1`, the Kb in assay [2] worked out at 5 nM; in assay [3], 79.4 nM.
Turning to `Cc1cc(C)nc(N2CC[C@@H]3CN(C(=O)c4cc(F)ccc4-n4nccn4)[C@H]3C2)n1`, the Ki on Orexin receptor type 2 [4] was 18 nM; in assay [5], 1400 nM.
As to `COc1ccc(C[C@H]2c3cc(OC)c(OC)cc3CCN2[C@@H](C(=O)NC(C)C)c2ccccc2)cc1OC`, in assay [1], the IC50 was 6 nM.
`Cc1cnn(-c2ccc(C)nc2C(=O)N2C[C@@H]3C[C@@H]3C[C@H]2CNc2ncc(C(F)(F)F)cn2)c1`: the Kb in assay [2] came out at 0.6 nM; in assay [3] it was 0.4 nM.
For the molecule `Cc1cc(NC(=O)Nc2ccc(N(C)C)cc2)c2cc(F)cc(F)c2n1`, the Ki in assay [6] amounted to 320 nM; on D(1A) dopamine receptor, 1780 nM; in [1], 22 nM; on Orexin receptor type 2 [7], 1400 nM.
On to `Cc1nc(C(=O)N2CC3(CC3)C[C@H]2CNc2ncc(Cl)cn2)c(-c2ccccc2)s1`, for which the Kb in assay [2] and in assay [3] was 158 nM in each case.
`CCOc1ccc(C)nc1C(=O)N1C[C@@H]2C[C@@H]2C[C@H]1CNc1ncc(C)cn1`: the Kb in assay [2] stood at 0.8 nM; in assay [3], 100 nM.
In the case of `Cc1ccc(-c2ncccn2)c(C(=O)N2C[C@H](COc3ccc(F)cn3)CC[C@H]2C)c1` [FILOREXANT], at Orexin receptor type 2 [7], the affinity corresponds to a Ki of 0.3 nM.
For `CC1(C)OC[C@H](NC(=O)Nc2ccc(Br)cc2Br)[C@H](c2ccccc2)O1`, the results for the Ki (in assay [1]; at Orexin receptor type 2 [7]) were 1640 nM and 6 nM, respectively.
For `[3H]c1cccc([3H])c1-c1nnc(C[C@@H]2CCCN2C(=O)c2nc(C)sc2-c2ccccc2F)o1`, the values for the Ki (in [1]; at Orexin receptor type 2 [7]) were 1.1 nM and 129 nM, respectively.
Turning to `Cc1c(S(=O)(=O)Cc2ccccc2)c2ccccn2c1CC(=O)N(C)Cc1ccccc1`, the IC50 on Orexin receptor type 2 [4] was found to be 1 nM; in assay [5] it was 3780 nM.
Consider `CN(Cc1ccc(F)cc1)C(=O)Cc1nc(S(=O)(=O)Cc2ccccc2)c2ccccn12`, for which the IC50 at Orexin receptor type 2 [4] was 194 nM; in [5], more than 10000 nM.
Taken in the same sequence, the figures for `Cc1cccc(-c2sc(C)nc2C(=O)N2CCC2CNC(=O)c2cccc3c2OCCN3C)c1` (racemic) were 13 nM and 3100 nM.
The molecule `CCOc1ccc(C)nc1C(=O)N1C[C@@H]2C[C@@H]2C[C@H]1CNc1ncc(C(F)(F)F)cn1` had a Kb in assay [2] of 0.3 nM.
Regarding `Cc1ccc(-n2nccn2)c(C(=O)N2CCC[C@@H](COc3nccc4ccccc34)[C@@H]2C)c1`, the affinity in assay [1] corresponds to a Ki of 0.5 nM.
Still for that read-out and setting: as for `Cc1ccc(-n2nccn2)c(C(=O)N2CCC[C@@H](COc3ccccn3)[C@@H]2C)c1`, the figure is 1 nM.
In the case of `Cc1ccc(-c2ncccc2C)c(C(=O)N2C[C@@H]3C[C@@H]3C[C@H]2CNc2ncc(C(F)(F)F)cn2)n1`, the figures for the Kb in [2] and in [3] were 0.6 nM and 16 nM, respectively.
As for `Cc1ccc(-n2nccn2)c(C(=O)N2C[C@H](COc3nccc4ccccc34)OC[C@H]2C)c1`, in assay [5], the Ki turned out to be 2.2 nM.
Regarding `CCn1nc(C)cc1C(=O)NCC[C@H](Cc1ccccc1)N(C)C(=O)c1cc(C)ccc1-n1nccn1`, the Kd in [1] is 3050 nM; on Orexin receptor type 2 [7] it was 7 nM.
With `CCCOc1ccc(C)nc1C(=O)N1C[C@@H]2C[C@@H]2C[C@H]1CNc1ncc(C(F)(F)F)cn1`, the Kb in assay [2] stood at 0.3 nM; in assay [3] it was 63 nM.
As for `CN(Cc1ccccc1)C(=O)Cn1cc(S(=O)(=O)Cc2ccccc2)c2ccccc21`, the IC50 on Orexin receptor type 2 [4] amounted to 35 nM; in assay [5], 3460 nM.
With `Cc1ccc(NC[C@@H]2C[C@H]3C[C@H]3CN2C(=O)c2nc(C)ccc2OCC2CC2)nc1`, the Kb in assay [2] is 0.5 nM; in [3], 4 nM.
Consider `CCN(CC)c1ccc(NC(=O)c2oc3ccccc3c2C)cc1`, for which the values for the Ki (in assay [1]; at Orexin receptor type 2 [7]) were 36 nM and more than 10000 nM, respectively.
The corresponding values for `Cc1nc(C(=O)N2CCC[C@H]2Cc2nnc(-c3ccccc3)o2)c(-c2ccccc2F)s1` are 1.1 nM and 129 nM.
`Cc1ccc(-n2nccn2)c(C(=O)N2C[C@H](COc3ncccc3C)OC[C@H]2C)c1`: in [5], the Ki came out at 720 nM.
Turning to `Cc1c(S(=O)(=O)Cc2ccc(F)cc2)c2ccccn2c1CC(=O)N(C)Cc1ccc(F)cc1`, the Ki in assay [1] was determined as 4360 nM; at Orexin receptor type 2 [7], 5.7 nM.
As to `COc1c(F)cccc1C(=O)N1C[C@@H](C)CC[C@H]1CNc1ccc(Br)cn1` (racemic), the Ki in assay [8] was determined as 320 nM. For the same molecule, the Kb in assay [2] is 1.6 nM; in [3], 126 nM.
Turning to `O=C(Cn1cc(S(=O)(=O)Cc2ccc(F)cc2)c2ccccc21)NCc1ccc(F)cc1`, the IC50 at Orexin receptor type 2 [4] came to 96 nM; in [5], 9190 nM.
Take `Cc1cc(C)nc(NC[C@@H]2CC3(CC3)CN2C(=O)c2nc(C)sc2-c2ccccc2)n1`: the values for the Kb in assay [2] and in assay [3] were 31.6 nM and 2.5 nM, respectively.
For `Cc1cccc(-c2sc(C)nc2C(=O)N2CCC2CNC(=O)c2c(N)nc3sccn23)c1` (racemic), the figures for the IC50 (at Orexin receptor type 2 [4]; in assay [5]) were 5 nM and 10 nM, respectively.
The corresponding values for `Cc1c(S(=O)(=O)Cc2ccccc2)c2ccccn2c1CC(=O)N(C)Cc1ccc(F)cc1` are 0.8 nM and 2380 nM.
`CNC(=O)[C@@H](c1ccccc1)N1CCc2cc(OC)c(OC)cc2[C@@H]1CCc1ccc(C(F)(F)F)cc1` [ALMOREXANT]: on Orexin receptor type 2 [7], the affinity corresponds to a Ki of 8 nM.
For `CN(Cc1ccc(F)cc1)C(=O)Cn1cc(S(=O)(=O)Cc2ccc(F)cc2)c2ccccc21`, the values for the concentration for half-maximal inhibition (IC50) (on Orexin receptor type 2 [4]; in [5]) were 5 nM and 4360 nM, respectively.
In the case of `CN(C)c1ccc(NC(=O)Nc2ccnc3c(F)ccc(F)c23)cc1`, the Ki in [1] amounted to 8.7 nM; at Orexin receptor type 2 [7], 503 nM.
`Cc1nc2ccc(NC(=O)Nc3ccnc4cccnc34)cc2o1`: the results for the Ki (in assay [9]; at Adenosine receptor A2a) were 1200 nM and 670 nM, respectively.
Consider `CCCOc1ccc(C)nc1C(=O)N1C[C@@H]2C[C@@H]2C[C@H]1CNc1cnc(C)c(C)n1`, for which the Kb stood at 1 nM in [2] and 1.3 nM in assay [3].
On to `CN(Cc1ccccc1)C(=O)Cn1nc(S(=O)(=O)Cc2ccccc2)c2ccccc21`, for which the IC50 on Orexin receptor type 2 [4] came to 14 nM; in assay [5] it was 998 nM.
